Data taken from US20180051017A1, “AGENT FOR TREATMENT OF SCHIZOPHRENIA” (Sumitomo Dainippon Pharma Co., Ltd., priority 2002, published 2018).
Where a name gives a salt, the structure may show the parent alone.

Test system: patients with schizophrenia in the acute exacerbation phase
Assay: First stage phase II clinical trial: extrapyramidal symptom rating scales (AIMS, BAS, SAS)
Format: in vivo, human
Settings: for SAS (parkinsonism) score change, Average (SD) / BAS Global score (akathisia) change, Average (SD) / AIMS (dyskinesia) score change, Average (SD): n = 44-47
Description: According to the procedures as shown in Table 1 as described below, the placebo-controlled double blind experiment was done on 149 patients with schizophrenia in the acute exacerbation phase at 15 facilities in USA. The efficacy and safeness were studied when SM-13496 at a dose of 40 mg or 120 mg, or a placebo was orally administered once a day for 6 weeks after placebo washout.
As is shown in Table 7, among the adverse events, the main side effects, a relationship of which to the SM-13496 cannot be denied, was suppression, nausea, akathisia, free-floating vertigo (excluding rotatory vertigo), sleepiness, headache. The occurrence of dystonic reaction was low (less than 4%) in the SM-13496-treated groups.

Structure (SMILES): O=C1[C@@H]2[C@@H]3CC[C@@H](C3)[C@@H]2C(=O)N1C[C@@H]1CCCC[C@H]1CN1CCN(c2nsc3ccccc23)CC1 [SM-13496, (1R,2S,3R,4S)-N-[(1R,2R)-2-[4-(1,2-benzoisothiazol-3-yl)-1-piperazinyl-methyl]-1-cyclohexylmethyl]-2,3-bicyclo[2.2.1]heptanedicarboximide hydrochloride]
- SAS (parkinsonism) score change, Average (SD) (40 mg orally once a day for 6 weeks, p 0.588 vs placebo): 0.1 (1.08)
- BAS Global score (akathisia) change, Average (SD) (40 mg orally once a day for 6 weeks, p 0.687 vs placebo): 0.1 (1.04)
- AIMS (dyskinesia) score change, Average (SD) (40 mg orally once a day for 6 weeks, p 0.978 vs placebo): 0.7 (2.88)
- Changes in AIMS, BAS, SAS score between the treated groups (40 mg, 120 mg and placebo groups): no significant difference
- BAS Global score (akathisia) change, Average (SD) (120 mg orally once a day for 6 weeks, p 0.352 vs placebo): 0.4 (0.94)
- AIMS (dyskinesia) score change, Average (SD) (120 mg orally once a day for 6 weeks, p 0.467 vs placebo): 0.2 (2.21)
- SAS (parkinsonism) score change, Average (SD) (120 mg orally once a day for 6 weeks, p 0.808 vs placebo): 0.1 (1.11)
- Ratio of the patients requiring benztropine (SM-13496-treated groups): 24%
